Experimental findings from PubChem BioAssay (NCI) are described below.

Common to all, as to experiment: inhibition of tumour cell growth, NCI panel, 48 h
The subject of assay [1] is MOLT-4 leukemia.
Assay [2] has as its system KM20L2 colon.
Assay [3] has as its system A549 NSCLC.
Assay [4] concerns SF-268 CNS.
In assay [5] the test system is NCI-H226 lung.
Assay [6] has as its system BT-549 breast.
The subject of assay [7] is HCT-15 colon.
In assay [8] the test system is MDA-N.
In assay [9] the test system is KM12 colon.
Assay [10] has as its system LXFL 529 NSCLC.
For assay [11], the system named is HOP-62 NSCLC.

The structures appear in SMILES notation. Several values for one entry are separate records, joined by “and”; a condition that tells them apart may be missing. Equal entries are not always repeated.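 Test compounds were applied to cells in 96-well plates for 48 hours at 5 doses. The concentration for 50% growth inhibition is given as GI50. TGI is the concentration that stops growth completely.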

With `C/C=C(/C)C(=O)O[C@H]1[C@H](O)CC(c2ccc3c(c2O)C(O)=C2C(=O)C4(OC)C(O)=C(C(N)=O)C(=O)[C@H](CC(=O)c5ccccc5O)C4CC2[C@@]3(C)OC)O[C@@H]1C` (stereo partly specified), the TGI in [1] was 10.5 µM; in assay [2], 0.0623 µM; in [3], 4.6 µM and 1.52 µM; in assay [4], 2.91 µM; in assay [5], 2.33 µM; in assay [6], 0.892 µM. The TGI was 18.1 µM in assay [7]; 2.09 µM in assay [8]; 0.226 µM and 0.0935 µM in [9]; 0.973 µM in assay [10].

For `CN1C/C(=C\C=C\c2ccccc2)C(=O)/C(=C/C=C/c2ccccc2)C1`, the TGI in assay [1], in [2], in [3], in assay [4], in [5] and in assay [11] was above 100 µM throughout. The TGI in assay [7], in assay [9] and in assay [10] was above 100 µM throughout.

With `CCCCNC(=O)/N=C/c1c(O)c2ccccc2oc1=O`, the TGI in assay [1], in assay [2], in [3], in assay [4], in [5] and in assay [11] was above 100 µM throughout. For the same compound, the TGI in [7] and in [10] was above 100 µM throughout.

Turning to `O=C1NCCS(=O)(=O)N2CCC[C@@H]12`, the TGI in assay [1], in assay [2], in [3], in assay [4], in assay [5] and in assay [11] was above 100 µM each time. The TGI in [7], in assay [9] and in [10] was above 100 µM throughout.

Turning to `O=C1c2ccccc2C(=O)c2[nH]c(Cc3ccc(F)cc3)nc21`, the TGI was 71.2 µM in assay [1]; 34.4 µM in assay [2]; 38.1 µM in assay [3]; 66.3 µM in assay [4]; 45.9 µM in assay [5]; 44.3 µM in [11]. In addition, the TGI worked out at 21.6 µM in [7], 32.9 µM in assay [9] and 88.2 µM in assay [10].

For `O=C1CSc2cc([N+](=O)[O-])ccc2N1`, the TGI in assay [1], in assay [2], in assay [3], in [4], in assay [5] and in [11] was above 100 µM throughout. In addition, the TGI in assay [7], in assay [9] and in assay [10] was above 100 µM throughout.

For `O=C(N/N=C/c1cc(Br)cc(Br)c1[O-])c1ccccc1O.O=C(N/N=C/c1cc(Br)cc(Br)c1[O-])c1ccccc1O.[Ni+2]`, the TGI in assay [1] stood at 15.6 µM; in assay [2], 1.85 µM; in assay [3] it was 2.33 µM; in assay [4], 6.94 µM; in assay [5], 1.56 µM; in assay [11], 1.82 µM. Moreover, the TGI in [7] is 1.57 µM; in assay [9], 2.13 µM.

Turning to `NC(CSSCC(N)Cc1ccccc1)Cc1ccccc1` (stereo unspecified), the TGI in assay [1], in [2], in assay [3], in [4], in assay [11] and in assay [7] was above 100 µM each time. For the same compound, the TGI in assay [9] is 94 µM; in assay [10], above 100 µM.

As for `COc1ccc(C[C@H](N)C(=O)N2C[C@@H](CO)C[C@@H](n3ccc(=O)[nH]c3=O)C2)cc1`, the TGI in assay [1], in [2], in assay [3], in assay [4], in [5] and in assay [11] was above 100 µM throughout. The TGI in assay [7], in [9] and in assay [10] was above 100 µM throughout.

For the compound `O=c1oc2ccccc2c(O)c1C(C/C(CCN1CCCC1)=N\Nc1ccccc1)c1ccccc1` (stereo unspecified), the TGI in [2], in assay [3], in [4], in assay [5], in assay [11] and in assay [7] was above 100 µM throughout. The TGI in [9] and in [10] was above 100 µM in each case.

As to `[N-]=[N+]=Nc1c([N+](=O)[O-])c(=O)n2c3c(cccc13)CCC2`, the TGI is 5.58 µM in assay [1]; above 84.5 µM in [3]; 21.3 µM in [4]; 51.9 µM in [5]; above 100 µM in assay [11]; 32.7 µM in [6]. The TGI in [7] turned out to be 17.8 µM; in [8] it was 27.9 µM; in assay [9], 34.8 µM.

On to `COc1ccc(N2C(=O)C3c4[nH]c5ccccc5c4C4CCCCC4C3C2=O)cc1` (stereo unspecified), for which the TGI is 36.9 µM in assay [1]; above 100 µM in assay [2]; 51.9 µM in [3]; 26.4 µM in [4]; above 100 µM in assay [5]; 35.8 µM in assay [11]. The results for the TGI in assay [7], in [9] and in assay [10] were above 100 µM, above 100 µM and 84.9 µM, respectively.

With `COc1ccc(C2=NN=C3C(c4ccccc4)=Nc4ccccc4N3C2)cc1`, the TGI in [1] is 33.4 µM; in [3] it was above 100 µM; in assay [4], above 100 µM; in assay [5] it was above 100 µM; in assay [11], above 100 µM; in [6], above 100 µM. The TGI in assay [7], in assay [8] and in assay [9] was above 100 µM throughout.

Consider `CN(C)/N=N/c1nc[nH]c1C(N)=O`, for which the GI50 in assay [1] is 17.8 µM; in assay [3] it was above 147 µM; in assay [4], 54.8 µM; in assay [5], 140 µM; in assay [11], 43.8 µM; in [7], 73.8 µM. Besides, the GI50 in assay [9] was above 156 µM. The TGI in assay [4] is above 791 µM; in [6], above 1000 µM; in assay [7], above 1000 µM; in [8], above 1000 µM; in assay [9], above 1000 µM.

For the compound `CN(C)CCCNCc1cccc2ccccc12`, the TGI in assay [1], in assay [3], in [4], in assay [5], in [11] and in assay [6] was above 100 µM throughout. The TGI in [7], in assay [8] and in [9] was above 100 µM throughout.

Regarding `COC1OC2=CCC3C(=O)NC(=O)C3C2[C@H](OCc2ccccc2)C1OCc1ccccc1` (stereo partly specified), the TGI in [2] is 5.59 µM; in assay [3] it was 40.1 µM; in [11], 31.7 µM; in assay [7], 3.86 µM; in [9], 19.4 µM; in assay [10], 3.09 µM.

As to `NC(N)=NCCCC(NC(=O)OCCCCn1ccc(N)nc1=O)C(=O)O` (stereo unspecified), the TGI in assay [1], in [3], in assay [4], in assay [5], in [11] and in assay [6] was above 100 µM throughout. The TGI in [7], in assay [8] and in [9] was above 100 µM in each case.

Regarding `CC(C)(C)CC(C)(C)c1ccc(O)c(C[N+](C)(C)[O-])c1`, the TGI in assay [1], in [3], in [4], in [5], in assay [11] and in assay [6] was above 100 µM each time. Also, the TGI in assay [7], in assay [8] and in assay [9] was above 100 µM throughout.

For the compound `O=C(O)C(=O)/C=C(\O)c1ccc(Br)cc1`, the TGI in assay [1], in [3], in assay [4], in [5], in assay [11] and in assay [6] was above 100 µM each time. Besides, the TGI in assay [7], in assay [8] and in [9] was above 100 µM throughout.

Regarding `CCOC(=O)/C=C(\C(=O)OCC)n1ccc(=O)[nH]c1=O`, the TGI in [1] is 12.4 µM; in assay [3] it was above 84.5 µM; in [4], 42 µM; in [5], above 39.1 µM; in assay [11], 53.6 µM; in assay [6] it was 30.7 µM. Also, the figures for the TGI in assay [7], in assay [8] and in [9] were 21.5 µM, 51.3 µM and 35.2 µM, respectively.

Consider `CC1(C)N=C(c2ccccn2)C(c2ccccn2)=NC1(C)C`, for which the TGI in assay [1], in [2], in assay [3], in assay [4], in assay [5] and in assay [7] was above 100 µM in each case. The TGI in assay [9] and in assay [10] was above 100 µM each time.

For the compound `COc1ccc2c(c1)OC[C@@H]1c3cc(O)c(OCc4ccccc4)cc3O[C@H]21`, the TGI in [1] is above 100 µM; in assay [2], 97.2 µM; in assay [3] it was 97.1 µM; in [4], above 100 µM; in [5], 95.7 µM; in assay [11], above 100 µM. Moreover, the TGI in assay [7] is above 100 µM; in assay [9], above 100 µM; in [10] it was 74.9 µM.

Turning to `O=C1C(=Cc2ccc(Cl)c(Cl)c2)C([O-])=C([P+](c2ccccc2)(c2ccccc2)c2ccccc2)C([O-])=C1[P+](c1ccccc1)(c1ccccc1)c1ccccc1`, the TGI in assay [1] stood at 3.84 µM; in [3], 10.4 µM; in assay [4] it was 3.94 µM; in assay [5], 7.14 µM; in assay [11], 7.8 µM; in [6], 5.19 µM. The TGI in [7] was found to be 13.8 µM; in assay [8] it was 3.77 µM; in assay [9], 4.66 µM.

For `Cn1c(O)c(C=Nc2ccccc2Cl)c(=O)n(C)c1=O`, the TGI is 61.5 µM in assay [1]; above 100 µM in [3]; above 100 µM in [4]; above 100 µM in assay [5]; 52.4 µM in [11]; above 100 µM in assay [6]. Also, the TGI in assay [7] is 41.4 µM; in [8], above 100 µM; in assay [9], above 100 µM.

As for `COC(=O)c1c(O)ccc2c1c1c(n2Cc2ccccc2)C(=O)c2ccccc2C1`, the TGI in assay [1] was 37.6 µM; in assay [3] it was above 100 µM; in assay [4] it was above 100 µM; in assay [5], above 100 µM; in assay [11], above 100 µM; in assay [6], above 100 µM. Further, the TGI in assay [7], in [8] and in [9] was above 100 µM throughout.
